System: 777334-354-R2-J4-PDC tumor spheroids with HUVEC/MSC, viability
Experiment: Anticancer human tumor 777334-354-R2-J4-PDC patient-derived pancreatic adenocarcinoma cell line growth inhibition [GQUAD]
Conditions: for IC50: curve of first compound; for viability, T/C: stronger effect = lower value
Outline: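 Viability of tumor cells grown as complex spheroids with endothelial and stromal cells, exposed to drug combinations. Top concentration at or near clinical Cmax (else 10 microM), diluted in half-log increments.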

[1] = second compound 0.0316 µM, first compound 0.0316 µM
[2] = second compound 0.0316 µM, first compound 0.316 µM
[3] = second compound 0.1 µM, first compound 0.0316 µM
[4] = second compound 0.1 µM, first compound 0.316 µM
[5] = second compound 0.316 µM, first compound 0.0316 µM
[6] = second compound 0.316 µM, first compound 0.316 µM
[7] = second compound 1 µM, first compound 0.0316 µM
[8] = second compound 1 µM, first compound 0.316 µM
[9] = second compound 3.16 µM, first compound 0.0316 µM
[10] = second compound 3.16 µM, first compound 0.316 µM
[11] = second compound 10 µM, first compound 0.0316 µM
[12] = second compound 10 µM, first compound 0.316 µM
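Further: spheroids exposed to compounds for 7 days before readout.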

With `Cn1ncnc1[C@H]1c2n[nH]c(=O)c3cc(F)cc(c23)N[C@@H]1c1ccc(F)cc1` + Cc1[nH]c2ccc(F)cc2c1-c1nc2c3cccnc3c3ncccc3c2[nH]1 as the molecule, how does the IC50 (second compound 0.0316 µM) read?
The IC50 was greater than 316 nM.

And the IC50 (second compound 0.1 µM)?
The IC50 was greater than 316 nM.

What about the IC50 (second compound 0.316 µM) of the same molecule?
The IC50 was greater than 316 nM.

What about the IC50 (second compound 1 µM) of the same molecule?
Its IC50 is greater than 316 nM.

What about the IC50 (second compound 3.16 µM) of the same molecule?
Its IC50 is less than 0.999 nM.

What about the IC50 (second compound 10 µM) of the same molecule?
Its IC50 is less than 0.999 nM.

And the viability, T/C (second compound 0.0316 µM, first compound 0.000999 µM)?
The viability, T/C was 105%.

And the viability, T/C (second compound 0.0316 µM, first compound 0.00316 µM)?
The viability, T/C was 87.4%.

What about the viability, T/C (second compound 0.0316 µM, first compound 0.00999 µM) of the same molecule?
Its viability, T/C is 92%.

And the viability, T/C [1]?
The viability, T/C was 95.9%.

What about the viability, T/C (second compound 0.0316 µM, first compound 0.0999 µM) of the same molecule?
The viability, T/C was 81.6%.

What about the viability, T/C [2] of the same molecule?
Its viability, T/C is 90.3%.

What about the viability, T/C (second compound 0.1 µM, first compound 0.000999 µM) of the same molecule?
The viability, T/C was 110%.

And the viability, T/C (second compound 0.1 µM, first compound 0.00316 µM)?
The viability, T/C was 102%.

What about the viability, T/C (second compound 0.1 µM, first compound 0.00999 µM) of the same molecule?
Its viability, T/C is 99.4%.

What about the viability, T/C [3] of the same molecule?
Its viability, T/C is 83.9%.

And the viability, T/C (second compound 0.1 µM, first compound 0.0999 µM)?
The viability, T/C was 94.5%.

And the viability, T/C [4]?
The viability, T/C was 88.2%.

What about the viability, T/C (second compound 0.316 µM, first compound 0.000999 µM) of the same molecule?
Its viability, T/C is 94.7%.

What about the viability, T/C (second compound 0.316 µM, first compound 0.00316 µM) of the same molecule?
The viability, T/C was 97.9%.

And the viability, T/C (second compound 0.316 µM, first compound 0.00999 µM)?
Its viability, T/C is 95.1%.

What about the viability, T/C [5] of the same molecule?
Its viability, T/C is 85.5%.

What about the viability, T/C (second compound 0.316 µM, first compound 0.0999 µM) of the same molecule?
Its viability, T/C is 84%.

And the viability, T/C [6]?
Its viability, T/C is 74.7%.

And the viability, T/C (second compound 1 µM, first compound 0.000999 µM)?
Its viability, T/C is 75.4%.

And the viability, T/C (second compound 1 µM, first compound 0.00316 µM)?
The viability, T/C was 91.9%.

What about the viability, T/C (second compound 1 µM, first compound 0.00999 µM) of the same molecule?
Its viability, T/C is 91.2%.

And the viability, T/C [7]?
The viability, T/C was 81.9%.

What about the viability, T/C (second compound 1 µM, first compound 0.0999 µM) of the same molecule?
The viability, T/C was 82.1%.

And the viability, T/C [8]?
Its viability, T/C is 65.5%.

What about the viability, T/C (second compound 3.16 µM, first compound 0.000999 µM) of the same molecule?
Its viability, T/C is 33.3%.

And the viability, T/C (second compound 3.16 µM, first compound 0.00316 µM)?
Its viability, T/C is 33.7%.

What about the viability, T/C (second compound 3.16 µM, first compound 0.00999 µM) of the same molecule?
The viability, T/C was 44.6%.

What about the viability, T/C [9] of the same molecule?
The viability, T/C was 22.8%.

And the viability, T/C (second compound 3.16 µM, first compound 0.0999 µM)?
Its viability, T/C is 28.6%.

What about the viability, T/C [10] of the same molecule?
The viability, T/C was 43.8%.

And the viability, T/C (second compound 10 µM, first compound 0.000999 µM)?
Its viability, T/C is 35.3%.

And the viability, T/C (second compound 10 µM, first compound 0.00316 µM)?
Its viability, T/C is 37.6%.

What about the viability, T/C (second compound 10 µM, first compound 0.00999 µM) of the same molecule?
Its viability, T/C is 41.8%.

And the viability, T/C [11]?
The viability, T/C was 28.7%.

What about the viability, T/C (second compound 10 µM, first compound 0.0999 µM) of the same molecule?
Its viability, T/C is 37.1%.

And the viability, T/C [12]?
The viability, T/C was 31.5%.

For `Nc1ccn(C2OC(CO)C(O)C2(F)F)c(=O)n1` (centres undefined) + Cc1[nH]c2ccc(F)cc2c1-c1nc2c3cccnc3c3ncccc3c2[nH]1, which IC50 (second compound 0.0316 µM) is on record?
Its IC50 is 931 nM.

And the IC50 (second compound 0.1 µM)?
The IC50 was 1140 nM.

What about the IC50 (second compound 0.316 µM) of the same molecule?
Its IC50 is 809 nM.

And the IC50 (second compound 1 µM)?
Its IC50 is 466 nM.

What about the IC50 (second compound 3.16 µM) of the same molecule?
The IC50 was less than 31.6 nM.

And the IC50 (second compound 10 µM)?
The IC50 was less than 31.6 nM.

And the viability, T/C [1]?
The viability, T/C was 88%.

And the viability, T/C (second compound 0.0316 µM, first compound 0.1 µM)?
Its viability, T/C is 67.5%.

What about the viability, T/C [2] of the same molecule?
The viability, T/C was 65%.

And the viability, T/C (second compound 0.0316 µM, first compound 1 µM)?
Its viability, T/C is 46.3%.

What about the viability, T/C (second compound 0.0316 µM, first compound 3.16 µM) of the same molecule?
Its viability, T/C is 41.6%.

What about the viability, T/C (second compound 0.0316 µM, first compound 10 µM) of the same molecule?
The viability, T/C was 34%.

And the viability, T/C [3]?
The viability, T/C was 90.2%.

And the viability, T/C (second compound 0.1 µM, first compound 0.1 µM)?
The viability, T/C was 74%.

And the viability, T/C [4]?
Its viability, T/C is 69.2%.

What about the viability, T/C (second compound 0.1 µM, first compound 1 µM) of the same molecule?
The viability, T/C was 47.6%.

And the viability, T/C (second compound 0.1 µM, first compound 3.16 µM)?
The viability, T/C was 41.3%.

What about the viability, T/C (second compound 0.1 µM, first compound 10 µM) of the same molecule?
Its viability, T/C is 32.1%.

And the viability, T/C [5]?
The viability, T/C was 75.5%.

And the viability, T/C (second compound 0.316 µM, first compound 0.1 µM)?
Its viability, T/C is 84.7%.

And the viability, T/C [6]?
The viability, T/C was 59.4%.

What about the viability, T/C (second compound 0.316 µM, first compound 1 µM) of the same molecule?
The viability, T/C was 49.7%.

What about the viability, T/C (second compound 0.316 µM, first compound 3.16 µM) of the same molecule?
The viability, T/C was 39.8%.

And the viability, T/C (second compound 0.316 µM, first compound 10 µM)?
The viability, T/C was 35.5%.

What about the viability, T/C [7] of the same molecule?
The viability, T/C was 73.5%.

What about the viability, T/C (second compound 1 µM, first compound 0.1 µM) of the same molecule?
Its viability, T/C is 68%.

What about the viability, T/C [8] of the same molecule?
The viability, T/C was 52.6%.

And the viability, T/C (second compound 1 µM, first compound 1 µM)?
The viability, T/C was 40.7%.

And the viability, T/C (second compound 1 µM, first compound 3.16 µM)?
Its viability, T/C is 39.4%.

And the viability, T/C (second compound 1 µM, first compound 10 µM)?
The viability, T/C was 29.3%.

And the viability, T/C [9]?
The viability, T/C was 36.6%.

And the viability, T/C (second compound 3.16 µM, first compound 0.1 µM)?
The viability, T/C was 31.7%.

And the viability, T/C [10]?
The viability, T/C was 30.7%.

What about the viability, T/C (second compound 3.16 µM, first compound 1 µM) of the same molecule?
The viability, T/C was 13.8%.

What about the viability, T/C (second compound 3.16 µM, first compound 3.16 µM) of the same molecule?
The viability, T/C was 13.6%.

And the viability, T/C (second compound 3.16 µM, first compound 10 µM)?
The viability, T/C was 12.9%.

What about the viability, T/C [11] of the same molecule?
Its viability, T/C is 30%.

What about the viability, T/C (second compound 10 µM, first compound 0.1 µM) of the same molecule?
Its viability, T/C is 26.9%.

What about the viability, T/C [12] of the same molecule?
The viability, T/C was 16.2%.

What about the viability, T/C (second compound 10 µM, first compound 1 µM) of the same molecule?
The viability, T/C was 10.3%.

What about the viability, T/C (second compound 10 µM, first compound 3.16 µM) of the same molecule?
The viability, T/C was 8.66%.

And the viability, T/C (second compound 10 µM, first compound 10 µM)?
Its viability, T/C is 7.59%.
